Test results from PubChem BioAssay AID699 (NMMLSC, 2007).
The source made the active and inactive calls. How the calls were made is not given here.

target: fMet-Leu-Phe receptor (Homo sapiens) (UniProt P21462); assay: FPR antagonists blocking calcium signaling, confirmation, cell-based, calcium response (AID 699); details: FPR1 cells, ligand-induced calcium response inhibition; active compounds read high; concentration not given here
Sequence (P21462 whole entry, looked up): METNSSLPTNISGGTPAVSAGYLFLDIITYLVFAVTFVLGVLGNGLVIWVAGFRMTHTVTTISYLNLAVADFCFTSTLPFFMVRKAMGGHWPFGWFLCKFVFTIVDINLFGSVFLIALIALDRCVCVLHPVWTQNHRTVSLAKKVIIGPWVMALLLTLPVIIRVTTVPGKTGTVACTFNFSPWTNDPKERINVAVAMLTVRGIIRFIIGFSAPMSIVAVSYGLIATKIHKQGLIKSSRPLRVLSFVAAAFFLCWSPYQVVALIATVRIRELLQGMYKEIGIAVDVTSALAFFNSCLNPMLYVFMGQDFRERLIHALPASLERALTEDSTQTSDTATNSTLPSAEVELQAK

Row | Compound | inhibition
1 | COC(=O)c1[nH]c(C)c(/C(O)=C2\C(=O)C(=O)N(CCN3CCOCC3)C2c2cccs2)c1C (centres undefined) | 93.9%
2 | CCC(=O)Nc1c(C#N)c2nc3ccccc3nc2n1-c1ccccc1C | 91.7%
3 | COc1ccc(OC)c(C2C(C(=O)c3cccs3)=C(O)C(=O)N2c2cc(C)on2)c1 (centres undefined) | 93.8%
4 | COc1cc(C2C(C(=O)c3ccco3)=C(O)C(=O)N2CCc2ccccc2)ccc1O (centres undefined) | 98.8%
5 | CC(C)CN(CC(C)C)C(=O)CS(=O)(=O)Cc1ccccc1 | -0% (inactive)
6 | O=C1C(C23CC4CC(CC(C4)C2)C3)C(=O)N(c2ccccc2)N1c1ccccc1 | -0% (inactive)
7 | O=C(C1=C(O)C(=O)N(Cc2ccccc2)C1c1ccco1)c1ccco1 (centres undefined) | 56.9% (inactive)
8 | CCOc1ccc(C2C(C(=O)c3ccco3)=C(O)C(=O)N2CCCn2ccnc2)cc1 (centres undefined) | 23.6% (inactive)
9 | CC1(C)S[C@@H]2[C@H](NC(=O)Cc3ccccc3)C(=O)N2[C@H]1C(=O)O | 79.1% (inactive)
10 | Cc1c(C(=O)NC2CCCc3ccccc32)oc2ccc(S(=O)(=O)N3CCOCC3)cc12 (centres undefined) | 66.4% (inactive)
11 | Cc1ccc(C2/C(=C(/O)c3ccc(Cl)cc3)C(=O)C(=O)N2CC2CCCO2)o1 (centres undefined) | 15.5% (inactive)
12 | Cc1[nH]n2c(=O)c(C#N)c(-c3ccccc3)nc2c1-c1ccccc1 | 104%
13 | COc1ccccc1C1/C(=C(/O)c2ccccc2)C(=O)C(=O)N1CC(C)C (centres undefined) | 99%
14 | COc1ccccc1Oc1c(C)oc2cc(OC(=O)c3ccco3)ccc2c1=O | 93.7%
15 | COCCCN1C(=O)C(O)=C(C(=O)c2ccco2)C1c1ccccc1 (centres undefined) | 56.7% (inactive)
16 | COc1ccc(Cl)cc1-n1c(=S)sc2c(=O)[nH]c(SCC(=O)NCC3CCCO3)nc21 (centres undefined) | 100%
17 | COCCCN1C(=O)C(O)=C(C(=O)c2ccco2)C1c1cccc(Br)c1 (centres undefined) | 90.9%

Row | Compound | inhibition
18 | O=C1C(CCS(=O)c2ccccc2)C(=O)N(c2ccccc2)N1c1ccccc1 (centres undefined) | -0% (inactive)
19 | C=CCOc1cccc(C2C(C(=O)c3ccco3)=C(O)C(=O)N2CCN2CCOCC2)c1 (centres undefined) | 102%
20 | CCOc1cccc(/C(O)=C2/C(=O)C(=O)N(CCOC)C2c2ccc(C)o2)c1 (centres undefined) | 90.5%
21 | COc1ccc(OC)c(C2/C(=C(/O)c3ccccc3)C(=O)C(=O)N2Cc2ccco2)c1 (centres undefined) | 38.1% (inactive)
22 | CCCOc1ccc(C2C(C(=O)c3ccc(C)o3)=C(O)C(=O)N2CCCn2ccnc2)cc1 (centres undefined) | 21.4% (inactive)
23 | COc1ccccc1-c1c(C)oc2cc(OC(=O)c3ccco3)ccc2c1=O | 83.2% (inactive)
24 | O=C(NC1CCCC1)c1sc(=S)n2c1[nH]c(=O)c1ccccc12 | 97%
25 | C=CCOc1ccc(C2C(C(=O)c3ccco3)=C(O)C(=O)N2Cc2cccnc2)cc1 (centres undefined) | -0% (inactive)
26 | Cc1[nH]n2c(=O)c3c(nc2c1-c1ccc(Cl)cc1)CCC3 | -0% (inactive)
27 | COC(=O)c1[nH]c(C)c(/C(O)=C2\C(=O)C(=O)N(CCCN3CCOCC3)C2c2ccccn2)c1C (centres undefined) | 26.5% (inactive)
28 | Cc1ccsc1C1C2=C(CC(C)(C)CC2=O)Nc2ncnn21 (centres undefined) | -0% (inactive)
29 | COCCCN1C(=O)C(=O)/C(=C(/O)c2ccccc2)C1c1ccc2c(c1)OCO2 (centres undefined) | 101%
30 | CCCCC1C(=O)N(c2ccccc2)N(c2ccccc2)C1=O | 96.9%
31 | O=C(C1=C(O)C(=O)N(Cc2ccccc2)C1c1ccncc1)c1ccco1 (centres undefined) | -0% (inactive)
32 | COCCN1C(=O)C(O)=C(C(=O)c2cccs2)C1c1ccccc1 (centres undefined) | 95.1%
33 | COCCCN1C(=O)C(O)=C(C(=O)c2ccco2)C1c1ccc(Br)cc1 (centres undefined) | 39.8% (inactive)
34 | CCCOc1ccc(C2C(C(=O)c3ccco3)=C(O)C(=O)N2CCCn2ccnc2)cc1 (centres undefined) | 98.4%
